Experiments:
[1] = target: T1, Histidine tagged HIF-2α protein containing PAS-B domain (240-350) (Homo sapiens, UniProt Q99814); experiment: HIF-2α Scintillation Proximity Assay (SPA) binding assay; settings: 50 nM HIF-2α protein, 25 nM 3H-tracer
T1 construct: HIF-2α protein containing PAS-B domain (240-350); made in house
Summary of the method: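 His-tagged HIF-2α PAS-B (240-350), 50 nM final, preincubated with compound 1 h at room temperature in 25 mM Tris-HCl pH 7.4, 150 mM NaCl, 0.15% BSA, 0.001% Tween 20, 2% DMSO. Copper-chelate SPA beads (3 ug/well, 45 min) and 25 nM tritiated N-(3-chlorophenyl)-4-nitro-2,1,3-benzoxadiazol-5-amine tracer followed; IC50 from four-parameter fits.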

HIF-2α = target: T2, HIF-2α (Homo sapiens, UniProt Q99814); experiment: HIF-2α luciferase reporter assay in HIF-Luc-786-O cells; type: cell-based
T2 construct: host or cells: 786-O cells stably transduced with Cignal Lenti HIF Luc Reporter (only the reporter was introduced, not HIF-2α)
T2 sequence (Q99814 whole entry): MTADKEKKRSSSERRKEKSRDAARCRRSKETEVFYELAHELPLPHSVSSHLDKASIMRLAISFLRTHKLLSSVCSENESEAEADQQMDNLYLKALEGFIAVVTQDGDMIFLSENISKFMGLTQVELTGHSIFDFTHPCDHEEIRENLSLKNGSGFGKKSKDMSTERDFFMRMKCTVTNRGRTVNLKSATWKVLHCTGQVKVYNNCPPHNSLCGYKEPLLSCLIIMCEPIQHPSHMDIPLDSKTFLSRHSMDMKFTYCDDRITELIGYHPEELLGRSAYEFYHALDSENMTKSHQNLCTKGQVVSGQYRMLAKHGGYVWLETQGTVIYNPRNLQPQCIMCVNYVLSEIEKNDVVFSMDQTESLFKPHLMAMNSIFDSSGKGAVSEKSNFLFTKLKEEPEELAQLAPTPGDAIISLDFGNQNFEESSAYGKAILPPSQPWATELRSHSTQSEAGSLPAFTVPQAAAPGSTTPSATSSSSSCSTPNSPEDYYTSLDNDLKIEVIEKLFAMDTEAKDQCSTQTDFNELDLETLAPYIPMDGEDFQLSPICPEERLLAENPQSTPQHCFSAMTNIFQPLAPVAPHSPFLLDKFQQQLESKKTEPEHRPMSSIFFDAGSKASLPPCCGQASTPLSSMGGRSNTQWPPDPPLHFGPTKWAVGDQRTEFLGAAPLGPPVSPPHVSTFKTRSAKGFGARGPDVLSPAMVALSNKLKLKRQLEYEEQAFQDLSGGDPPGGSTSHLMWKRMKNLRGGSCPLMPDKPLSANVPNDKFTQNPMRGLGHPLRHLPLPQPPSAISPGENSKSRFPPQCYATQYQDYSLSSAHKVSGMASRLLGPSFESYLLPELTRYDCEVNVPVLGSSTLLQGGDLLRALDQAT
Summary of the method: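 786-O cells stably carrying a HIF-responsive luciferase reporter, 20,000/well in OptiMem with 1% DMSO, exposed to compound up to 50 uM for 20 h at 37 °C. ONE-Glo luminescence normalised to DMSO and no-cell controls; IC50 by four-parameter fit.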

T1 sequence (Q99814 240-350): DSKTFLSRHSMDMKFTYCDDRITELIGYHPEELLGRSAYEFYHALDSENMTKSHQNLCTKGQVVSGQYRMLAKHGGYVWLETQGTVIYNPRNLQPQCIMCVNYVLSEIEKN

Row | IC50 ([1]; Table 1) [nM] | IC50 (HIF-2α; Table 1, 20 hours incubation) [nM] | IC50 ([1]; Table 2) [nM] | IC50 (HIF-2α; Table 2, 20 hours incubation) [nM] | Compound
1 | 100 to 1000 | > 1000 |  |  | N#Cc1c(S(=O)(=O)C(F)(F)F)ccc(N2CCCc3cc(F)cc(F)c32)c1Cl [Example 13, 2-chloro-3-(6,8-difluoro-1,2,3,4-tetrahydroquinolin-1-yl)-6-trifluoromethanesulfonylbenzonitrile]
2 |  |  | < 100 | < 100 | N#Cc1cc(F)cc2c1[C@@H](c1ccc(C(F)(F)F)c(Cl)c1C#N)CC[C@@H]2F [Example 137, (5S,8R)-8-[3-Chloro-2-cyano-4-(trifluoromethyl)phenyl]-3,5-difluoro-5,6,7,8-tetrahydronaphthalene-1-carbonitrile]
3 | > 1000 | > 1000 |  |  | N#Cc1cc(S(=O)(=O)C(F)(F)F)ccc1N1CCCc2cc(F)cc(F)c21 [Example 80]
4 | > 1000 | > 1000 |  |  | O=S1(=O)c2ccc(C3CCCc4cc(F)cc(F)c43)c(Cl)c2C(O)C1(F)F (stereo not drawn) [Example 103]
5 | 100 to 1000 | > 1000 |  |  | N#Cc1cc(F)cc2c1N(c1ccc(S(=O)(=O)C(F)(F)F)c3ncccc13)CCC2 [Example 40]
6 | > 1000 | > 1000 |  |  | O=S(=O)(c1ccc(N2CCCc3cc(F)cc(F)c32)c2cccnc12)C(F)(F)F [Example 21, 6,8-difluoro-8′-trifluoromethanesulfonyl-3,4-dihydro-2H-1,5′-biquinoline]
7 | > 1000 | > 1000 |  |  | O=S(=O)(c1ccc(N2C[C@H](O)Cc3cc(F)cc(F)c32)c2c1[C@H](O)[C@H](F)C2)C(F)(F)F [Example 50]
8 | > 1000 | > 1000 |  |  | O=S(=O)(c1ccc(N2CCCc3cc(F)cc(F)c32)c2c1C(O)CC2)C(F)(F)F (stereo not drawn) [Example 78]
9 | 100 to 1000 | 100 to 1000 |  |  | CS(=O)(=O)c1ccc(C2CCCc3cc(F)ccc32)c2c1[C@H](O)C(F)(F)C2 (stereo partly drawn) [Example 9]
10 |  |  | < 100 | < 100 | N#Cc1cc(F)cc2c1N(c1ccc(C(F)(F)F)c(F)c1C#N)CCC2(F)F [Example 125, 1-[2-cyano-3-fluoro-4-(trifluoromethyl)phenyl]-4,4,6-trifluoro-2,3-dihydroquinoline-8-carbonitrile]
11 | > 1000 | > 1000 |  |  | CS(=O)(=O)c1ccc([C@@H]2CNCc3cc(F)cc(F)c32)c2c1[C@H](O)C(F)(F)C2 [Example 107]
12 | > 1000 | > 1000 |  |  | CC1(O)c2c(S(C)(=O)=O)ccc([C@H]3CCCc4cc(F)cc(F)c43)c2CC1(F)F (stereo partly drawn) [Example 113]
13 | < 100 | < 100 |  |  | O=S(=O)(c1ccc(C2CCCc3cc(F)cc(F)c32)c2c1[C@H](O)[C@H](F)C2)C(F)(F)F (stereo partly drawn) [Example 89]
14 | > 1000 | > 1000 |  |  | N#Cc1cc(F)cc2c1N(c1ccc(C(F)(F)F)c(F)c1CCO)CCC2 [Example 44]
15 | > 1000 | > 1000 |  |  | N#Cc1cc(F)cc2c1[C@H](c1ccc(S(=O)(=O)C(F)(F)F)c3c1C[C@@H](F)[C@H]3O)CCC2 [Example 6, (S)-3-fluoro-8-((1S,2R)-2-fluoro-1-hydroxy-7-((trifluoromethyl)sulfonyl)-2,3-dihydro-1H-inden-4-yl)-5,6,7,8-tetrahydronaphthalene-1-carbonitrile]
16 | 100 to 1000 | 100 to 1000 |  |  | N#Cc1cc(F)cc2c1[C@H](c1ccc(S(=O)(=O)C(F)(F)F)c3c1CC[C@H]3O)CCC2 [Example 100]

The next lines start with the molecule.

Row | Compound | IC50 ([1]; Table 1) [nM] | IC50 (HIF-2α; Table 1, 20 hours incubation) [nM] | IC50 ([1]; Table 2) [nM] | IC50 (HIF-2α; Table 2, 20 hours incubation) [nM]
17 | Cn1nccc1-c1ccc([C@H]2CC[C@H](F)c3cc(F)cc(C#N)c32)c2c1[C@H](O)C(F)(F)C2 [Example 143, (5S,8R)-8-[(1S)-2,2-difluoro-1-hydroxy-7-(2-methylpyrazol-3-yl)-1,3-dihydroinden-4-yl]-3,5-difluoro-5,6,7,8-tetrahydronaphthalene-1-carbonitrile] |  |  | < 100 | < 100
18 | N#Cc1cc(F)cc2c1[C@@H](c1ccc(C(F)(F)F)c3c1C(=O)OC3)CC[C@@H]2F [Example 142, (5S,8R)-3,5-Difluoro-8-[3-oxo-7-(trifluoromethyl)-1,3-dihydro-2-benzofuran-4-yl]-5,6,7,8-tetrahydronaphthalene-1-carbonitrile] |  |  | < 100 | < 100
19 | O=Cc1c(S(=O)(=O)C(F)(F)F)ccc(N2CCCc3cc(F)cc(F)c32)c1Cl [Example 68] | > 1000 | > 1000 |  | 
20 | O=[N+]([O-])c1cc(S(=O)(=O)C(F)(F)F)ccc1N1CCCc2c(F)cc(F)cc21 [Example 64] | > 1000 | > 1000 |  | 
21 | N#Cc1cc(F)cc2c1C(c1ccc(C#N)c3c1CC(F)(F)[C@H]3O)CCC2 (mixture of isomers) [Example 141, 8-[(1S)-7-cyano-2,2-difluoro-1-hydroxy-1,3-dihydroinden-4-yl]-3-fluoro-5,6,7,8-tetrahydronaphthalene-1-carbonitrile] |  |  | < 100 | < 100
22 | Cc1c(N2CCC(F)(F)c3cc(F)cc(C#N)c32)cnc(C(F)(F)F)c1C#N [Example 128, 1-[5-cyano-4-methyl-6-(trifluoromethyl)pyridin-3-yl]-4,4,6-trifluoro-2,3-dihydroquinoline-8-carbonitrile] |  |  | < 100 | < 100
23 | N#Cc1cc(F)cc2c1N(c1ccc(C(F)(F)F)c(C#N)c1Cl)CCC2 [Example 28] | 100 to 1000 | 100 to 1000 |  | 
24 | N#Cc1cc(F)cc2c1N(c1ccc(C(F)(F)F)c(F)c1Cl)CCC2 [Example 15, 1-[2-chloro-3-fluoro-4-(trifluoromethyl)phenyl]-6-fluoro-1,2,3,4-tetrahydroquinoline-8-carbonitrile] | 100 to 1000 | 100 to 1000 |  | 
25 | O=S(=O)(c1ccc(N2CCCc3cc(F)cc(F)c32)c2c1C(O)C(F)(F)C2)C(F)(F)F (stereo not drawn) [Example 38] | 100 to 1000 | 100 to 1000 |  | 
26 | CC[C@H]1CCN(c2ccc(S(=O)(=O)C(F)(F)F)c3c2C[C@@H](F)[C@H]3O)c2c(F)cc(F)cc21 [Example 17, (1S,2R)-4-[(S)-4-ethyl-6,8-difluoro-1,2,3,4-tetrahydroquinol-1-yl]-2-fluoro-7-(trifluoromethylsulfonyl)-1-indanol] | 100 to 1000 | 100 to 1000 |  | 
27 | CC1(O)CCN(c2ccc(C(F)(F)F)c(F)c2C#N)c2c(C#N)cc(F)cc21 (stereo not drawn) [Example 120] | 100 to 1000 | 100 to 1000 |  | 
28 | CS(=O)(=O)c1ccc([C@H]2CCCc3cccc(C#N)c32)c2c1[C@H](O)[C@H](F)C2 [Example 97] | 100 to 1000 | 100 to 1000 |  | 
29 | N#Cc1cc(F)cc2c1N(c1ccc(S(=O)(=O)C(F)(F)F)c3cnccc13)CCC2 [Example 16, 6-fluoro-1-[8-(trifluoromethylsulfonyl)-5-isoquinolyl]-1,2,3,4-tetrahydroquinoline-8-carbonitrile] | 100 to 1000 | 100 to 1000 |  | 
30 | COC1CCN(c2ccc(C(F)(F)F)c(F)c2C#N)c2c(C#N)cc(F)cc21 (stereo not drawn) [Example 131, 1-[2-Cyano-3-fluoro-4-(trifluoromethyl)phenyl]-6-fluoro-4-methoxy-3,4-dihydro-2H-quinoline-8-carbonitrile] |  |  | < 100 | < 100
31 | N#Cc1cc(F)cc2c1N(c1ccc(C(F)(F)F)c(C#N)c1Cl)CCO2 [Example 36] | 100 to 1000 | 100 to 1000 |  | 
32 | CS(=O)(=O)c1ccc(C2CCCc3cc(F)cc(F)c32)c2cccnc12 (stereo not drawn) [Example 110] | > 1000 | > 1000 |  | 
33 | CS(=O)(=O)c1ccc(N2CCCc3cc(F)cc(Cl)c32)c2c1[C@H](O)[C@H](F)C2 [Example 47] | 100 to 1000 | > 1000 |  | 
34 | O=[N+]([O-])c1cc(S(=O)(=O)C(F)(F)F)ccc1N1CCCc2cc(Cl)cc(F)c21 [Example 58] | > 1000 | > 1000 |  | 
35 | CC(C)(O)c1cc(N2CCCc3cc(F)cc(F)c32)ccc1S(C)(=O)=O [Example 55] | > 1000 | > 1000 |  | 
36 | O=S(=O)(c1ccc(N2CCCc3cc(F)cc(F)c32)c2cn[nH]c12)C(F)(F)F [Example 81] | > 1000 | > 1000 |  | 
37 | O=S(=O)(c1ccc(N2CCCc3cc(F)cc(F)c32)c(Cl)c1CO)C(F)(F)F [Example 83] | > 1000 | > 1000 |  | 
38 | N#Cc1cc(F)cc2c1[C@@H](c1ccc(S(=O)(=O)C(F)(F)F)c3c1C[C@@H](F)[C@H]3O)CCC2 [Example 5, (8R)-3-fluoro-8-((1S,2R)-2-fluoro-1-hydroxy-7-((trifluoromethyl)sulfonyl)-2,3-dihydro-1H-inden-4-yl)-5,6,7,8-tetrahydronaphthalene-1-carbonitrile] | < 100 | < 100 |  | 
39 | N#Cc1c(S(N)(=O)=O)ccc(N2CCCc3cc(F)cc(F)c32)c1Cl [Example 75] | > 1000 | > 1000 |  | 
40 | N#Cc1cc(F)cc2c1[C@@H](c1ccc(S(=O)(=O)C(F)(F)F)c3c1C[C@@H](F)[C@H]3O)CC[C@@H]2F [Example 136, (5S,8R)-3,5-Difluoro-8-[(1S,2R)-2-fluoro-1-hydroxy-7-(trifluoromethylsulfonyl)-2,3-dihydro-1H-inden-4-yl]-5,6,7,8-tetrahydronaphthalene-1-carbonitrile] |  |  | < 100 | < 100
41 | COC(=O)c1cc(N2CCCc3cc(F)cc(F)c32)ccc1S(=O)(=O)C(F)(F)F [Example 77] | > 1000 | > 1000 |  | 
42 | N#Cc1cc(F)cc2c1N(c1ccc(C(F)(F)F)c(F)c1C#N)CCC2O (stereo not drawn) [Example 119] | > 1000 | 100 to 1000 |  | 

Reference: patent US11787762B2, “Tetralin and tetrahydroquinoline compounds as inhibitors of HIF-2alpha” (ARCUS BIOSCIENCES, INC., priority 2020, dated 2023)
